Test results: US9550803B2, “Method to improve antiviral activity of nucleotide analogue drugs” (priority 2011, dated 2017)
pIC50: −log10 of the molar value. Read-outs that look alike come from different tables or passages of the source.

Experiments:
vaccinia virus = experiment: microbe, parasite or virus in culture; type: cell-based; conditions: read-out: Antiviral activity, IC50 Vaccinia
[1] = test system: human cytomegalovirus (HCMV); experiment: microbe, parasite or virus in culture; type: cell-based; conditions: read-out: Antiviral activity, IC50 HCMV
cowpox virus = experiment: microbe, parasite or virus in culture; type: cell-based; conditions: read-out: Antiviral activity, IC50 Cowpox
in vitro = conditions: human
[2] = Orthopoxvirus vaccinia, HFF, 72 h
[3] = Human betaherpesvirus 5, HFF, 240 h

With `C[C@H](Cn1cnc2c(N)nc(N)nc21)OCP(=O)(O)O` [(R)-PMPDAP, reference compound] the CC50 (KB cells) was > 100 µM, the pIC50 (vaccinia virus) was < 4.00 and the pIC50 [1] was < 4.00. The pIC50 (cowpox virus) was < 4.00.
For `Nc1ncnc2c1ncn2C[C@@H](CO)OCP(=O)(O)O` [(S)-HPMPA, (S)-9-(3hydroxy-2-phosphonyl-methoxypropyl)adenine, reference compound], the CC50 (KB cells) was > 100 µM, the pIC50 (vaccinia virus) was 5.60 and the pIC50 [1] was 5.22. It also gave a pIC50 (cowpox virus) of 4.70.
In the case of `Nc1ccn(C[C@@H](CO)OCP(=O)(O)O)c(=O)n1` [(S)-HPMPC, cidofovir, reference compound], the pIC50 (vaccinia virus; [2]) was 5.00, the CC50 (in vitro) was > 100 µM and the pIC50 [1, 3] was 6.52. The pIC50 (cowpox virus; Cowpox virus, HFF, 72 h) was 4.60.
In the case of `Nc1ncnc2c1ncn2C[C@H]1COP(=O)(O)CO1` [(S)-cHPMPA, reference compound], the CC50 (KB cells) was > 100 µM, the pIC50 (vaccinia virus) was 6.00 and the pIC50 [1] was 5.82. The pIC50 (cowpox virus) was 5.60.
`CC(=NNC(N)=S)c1ccccn1` [Compound 3L, 2-Acetylpyridine thiosemicarbazone, reference compound] showed a CC50 (in vitro) of 2 µM.
Work on `CCCCCCCCNC(=O)[C@@H](N)Cc1ccc(OP2(=O)CO[C@@H](Cn3cnc4c(N)ncnc43)CO2)cc1` (stereo partly drawn) [Compound 8a, O-[(5S)-5-[(6-Amino-9H-purin-9-yl)methyl]-2-oxido-1,4,2-dioxaphosphinan-2-yl]-N-octyl-(L)-tyrosinamide] yielded a pIC50 (vaccinia virus; [2]) of 5.82, a CC50 (in vitro) of 100 µM and a pIC50 [1, 3] of 6.52. For the same compound, the pIC50 (cowpox virus; Cowpox virus, HFF, 72 h) was 5.52.
For `CCCCCCCCCCCCNC(=O)[C@@H](N)Cc1ccc(OP2(=O)CO[C@@H](Cn3cnc4c(N)ncnc43)CO2)cc1` (stereo partly drawn) [Compound 8b, O-[(5S)-5-[(6-Amino-9H-purin-9-yl)methyl]-2-oxido-1,4,2-dioxaphosphinan-2-yl]-N-dodecyl-(L)-tyrosinamide], the CC50 (in vitro) was 15 µM and the pIC50 [1, 3] was > 12.00.
In the case of `CCCCCCCCCCCCCCNC(=O)[C@@H](N)Cc1ccc(OP2(=O)CO[C@@H](Cn3cnc4c(N)ncnc43)CO2)cc1` (stereo partly drawn) [Compound 8c, O-[(5S)-5-[(6-Amino-9H-purin-9-yl)methyl]-2-oxido-1,4,2-dioxaphosphinan-2-yl]-N-tetradecyl-(L)-tyrosinamide], the CC50 (in vitro) was 15 µM and the pIC50 [1, 3] was > 12.00.
For `CCCCCCCCCCCCCCCCNC(=O)[C@@H](N)Cc1ccc(OP2(=O)CO[C@@H](Cn3cnc4c(N)ncnc43)CO2)cc1` (stereo partly drawn) [Compound 8d, O-[(5S)-5-[(6-Amino-9H-purin-9-yl)methyl]-2-oxido-1,4,2-dioxaphosphinan-2-yl]-N-hexadecyl-(L)-tyrosinamide], the pIC50 (vaccinia virus; [2]) was 8.22, the CC50 (in vitro) was 11 µM and the pIC50 [1, 3] was > 12.00. The pIC50 (cowpox virus; Cowpox virus, HFF, 72 h) was > 7.00.
In the case of `CCCCCCCCCCCCCCCCCCNC(=O)[C@@H](N)Cc1ccc(OP2(=O)CO[C@@H](Cn3cnc4c(N)ncnc43)CO2)cc1` (stereo partly drawn) [Compound 8e, O-[(5S)-5-[(6-Amino-9H-purin-9-yl)methyl]-2-oxido-1,4,2-dioxaphosphinan-2-yl]-N-octadecyl-(L)-tyrosinamide], the CC50 (in vitro) was 10 µM and the pIC50 [1, 3] was > 12.00.
For `CCCCCCCCCCCCCCCCNC(=O)[C@@H](N)Cc1ccc(OP2(=O)CO[C@@H](Cn3ccc(N)nc3=O)CO2)cc1` (stereo partly drawn) [Compound 8f, O-[(5S)-5-[(4-amino-2-oxopyrimidin-1(2H)-yl)methyl]-2-oxido-1,4,2-dioxaphosphinan-2-yl]-N-hexadecyl-(L)-tyrosinamide], the CC50 (in vitro) was 15 µM and the pIC50 [1, 3] was > 12.00.
In the case of `CCCCCCCCNC(=O)[C@@H](N)Cc1ccc(OP(=O)(O)CO[C@H](CO)Cn2cnc3c(N)ncnc32)cc1` [Compound 9a, O-[([[(2S)-1-(6-Amino-9H-purin-9-yl)-3-hydroxypropan-2-yl]oxy]methyl)(hydroxy)-phosphoryl]-N-octyl-(L)-tyrosinamide], the pIC50 [1, 3] was > 7.00.
With `CCCCCCCCCCCCNC(=O)[C@@H](N)Cc1ccc(OP(=O)(O)CO[C@H](CO)Cn2cnc3c(N)ncnc32)cc1` [Compound 9b, O-[([[(2S)-1-(6-Amino-9H-purin-9-yl)-3-hydroxypropan-2-yl]oxy]methyl)(hydroxy)-phosphoryl]-N-dodecyl-(L)-tyrosinamide] the CC50 (in vitro) was 15 µM and the pIC50 [1, 3] was > 12.00.
For `CCCCCCCCCCCCCCNC(=O)[C@@H](N)Cc1ccc(OP(=O)(O)CO[C@H](CO)Cn2cnc3c(N)ncnc32)cc1` [Compound 9c, O-[([[(2S)-1-(6-Amino-9H-purin-9-yl)-3-hydroxypropan-2-yl]oxy]methyl)(hydroxy)-phosphoryl]-N-tetradecyl-(L)-tyrosinamide], the CC50 (in vitro) was 20 µM and the pIC50 [1, 3] was > 12.00.
With `CCCCCCCCCCCCCCCCNC(=O)[C@@H](N)Cc1ccc(OP(=O)(O)CO[C@H](CO)Cn2cnc3c(N)ncnc32)cc1` [Compound 9d, O-[([[(2S)-1-(6-Amino-9H-purin-9-yl)-3-hydroxypropan-2-yl]oxy]methyl)(hydroxy)-phosphoryl]-N-hexadecyl-(L)-tyrosinamide] the pIC50 (vaccinia virus; [2]) was 8.52, the CC50 (in vitro) was 15 µM and the pIC50 [1, 3] was > 12.00. The pIC50 (cowpox virus; Cowpox virus, HFF, 72 h) was > 7.00.
In the case of `CCCCCCCCCCCCCCCCCCNC(=O)[C@@H](N)Cc1ccc(OP(=O)(O)CO[C@H](CO)Cn2cnc3c(N)ncnc32)cc1` [Compound 9e, O-[([[(2S)-1-(6-Amino-9H-purin-9-yl)-3-hydroxypropan-2-yl]oxy]methyl)-(hydroxy)-phosphoryl]-N-octadecyl-(L)-tyrosinamide], the CC50 (in vitro) was 10 µM and the pIC50 [1, 3] was > 12.00.
With `CCCCCCCCCCCCCCCCNC(=O)[C@@H](N)Cc1ccc(OP(=O)(O)CO[C@H](CO)Cn2ccc(N)nc2=O)cc1` [Compound 9f, O-[([[(2S)-1-(4-amino-2-oxopyrimidin-(2H)-yl)-3-hydroxypropan-2-yl]oxy]methyl)-(hydroxy)phosphoryl]-N-hexadecyl-(L)-tyrosinamide] the CC50 (KB cells) was 90 µM and the pIC50 [1] was > 12.00.
For `CCCCCCCCNC(=O)[C@@H](N)Cc1ccc(OP(=O)(O)COCCn2cnc3c(N)ncnc32)cc1` [Compound 14a, O-[{[2-(6-Amino-9H-purin-9-yl)ethoxy]methyl}(hydroxy)phosphoryl]-N-octyl-L-tyrosinamide], the pIC50 (vaccinia virus; [2]) was 4.30, the CC50 (in vitro) was 100 µM and the pIC50 [1, 3] was 4.46. The pIC50 (cowpox virus; Cowpox virus, HFF, 72 h) was < 4.00.
`CCCCCCCCCCCCCCCCNC(=O)[C@@H](N)Cc1ccc(OP(=O)(O)COCCn2cnc3c(N)ncnc32)cc1` [Compound 14b, O-[{[2-(6-Amino-9H-purin-9-yl)ethoxy]methyl}(hydroxy)phosphoryl]-N-hexadecyl-L-tyrosinamide] gave a pIC50 (vaccinia virus; [2]) of 5.40, a CC50 (in vitro) of 15 µM and a pIC50 [1, 3] of 5.60. For the same compound, the pIC50 (cowpox virus; Cowpox virus, HFF, 72 h) was 4.70.
In the case of `CCCCCCCCNC(=O)[C@@H](N)Cc1ccc(OP(=O)(O)CO[C@H](C)Cn2cnc3c(N)nc(N)nc32)cc1` [Compound 15a, O-[({[(2R)-1-(2,6-diamino-9H-purin-9-yl)propan-2-yl]oxy}methyl)(hydroxy)phosphoryl]-N-octyl-L-tyrosinamide], the pIC50 (vaccinia virus; [2]) was < 4.00, the CC50 (in vitro) was > 100 µM and the pIC50 [1, 3] was < 4.00. For the same compound, the pIC50 (cowpox virus; Cowpox virus, HFF, 72 h) was < 4.00.
Work on `Nc1nc(O)c2ncn(COC(CO)CO)c2n1` [DHPG, Ganciclovir, reference compound] yielded a pIC50 [1, 3] of 5.52.
For `Nc1ncnc2c1ncn2CCOCP(=O)(O)O` [PMEA, reference compound], the CC50 (KB cells) was > 100 µM, the pIC50 (vaccinia virus) was < 4.00 and the pIC50 [1] was 4.60. For the same compound, the pIC50 (cowpox virus) was < 4.00.
